Test results taken from ChEMBL document CHEMBL3885881, “DrugMatrix”.

Species: Rattus norvegicus
Test: DrugMatrix - Regimen: Daily Repeat
Assay type: toxicity, organism-based, Sprague-Dawley
Design: regimen Daily Repeat, gender Male, age 6-8 weeks
Details: in vivo, po, route oral GAVAGE, […]; for ABSOLUTE BASOPHIL / ABSOLUTE EOSINOPHIL / ABSOLUTE LYMPHOCYTE / ABSOLUTE MONOCYTE / ABSOLUTE SEGMENTED NEUTROPHIL / BASOPHIL / EOSINOPHIL / ERYTHROCYTE COUNT / HEMATOCRIT / HEMOGLOBIN / LEUKOCYTE COUNT / LYMPHOCYTE / MEAN CORPUSCULAR HEMOGLOBIN / MEAN CORPUSCULAR HEMOGLOBIN CONCENTRATION / MEAN CORPUSCULAR VOLUME / MONOCYTE / NEUTROPHIL / NUCLEATED RED BLOOD CELLS / PLATELET COUNT: tissue Blood; for ALANINE AMINOTRANSFERASE / ALBUMIN / ALKALINE PHOSPHATASE / ASPARTATE AMINOTRANSFERASE / BLOOD UREA NITROGEN / CARBON DIOXIDE / CHLORIDE / CHOLESTEROL / CREATINE PHOSPHOKINASE / CREATININE / GLUCOSE / LACTATE DEHYDROGENASE / LIPASE / PHOSPHORUS / POTASSIUM / SODIUM / TOTAL BILIRUBIN / TOTAL PROTEIN / URIC ACID: tissue Plasma
[1] = 0 mg/kg, 72 h, dose level Control, time 3 day
[2] = 0 mg/kg, 120 h, dose level Control, time 5 day
[3] = 5 mg/kg, 72 h, dose level Low, time 3 day

Structure (SMILES): CC(C)n1c(/C=C/C(O)CC(O)CC(=O)O)c(-c2ccc(F)cc2)c2ccccc21 (centres undefined) [FLUVASTATIN]
- ABSOLUTE BASOPHIL [1]: 0 CELLS/uL
- ABSOLUTE EOSINOPHIL [1]: 33 CELLS/uL
- ABSOLUTE LYMPHOCYTE [1]: 9048.5 CELLS/uL
- ABSOLUTE MONOCYTE [1]: 80.17 CELLS/uL
- ABSOLUTE SEGMENTED NEUTROPHIL [1]: 1521.67 CELLS/uL
- BASOPHIL [1]: 0%
- EOSINOPHIL [1]: 0.17%
- ERYTHROCYTE COUNT [1]: 5.46 x10E6/uL
- HEMATOCRIT [1]: 32.87%
- HEMOGLOBIN [1]: 12.95 G/DL
- LEUKOCYTE COUNT [1]: 10.68 x10E3/uL
- LYMPHOCYTE [1]: 86.67%
- MEAN CORPUSCULAR HEMOGLOBIN [1]: 23.72 pg
- MEAN CORPUSCULAR HEMOGLOBIN CONCENTRATION [1]: 39.4 G/DL
- MEAN CORPUSCULAR VOLUME [1]: 60.18 fL
- MONOCYTE [1]: 0.83%
- NEUTROPHIL [1]: 12.33%
- NUCLEATED RED BLOOD CELLS [1]: 0 /100WBC
- PLATELET COUNT [1]: 1211.33 x10E3/uL
- ALANINE AMINOTRANSFERASE [1]: 76.67 u/L
- ALBUMIN [1]: 3.93 G/DL
- ALKALINE PHOSPHATASE [1]: 317.17 u/L
- ASPARTATE AMINOTRANSFERASE [1]: 81.17 u/L
- BLOOD UREA NITROGEN [1]: 12.33 mg/dL
- CARBON DIOXIDE [1]: 31.17 mmol/L
- CHLORIDE [1]: 98.33 MEQ/L
- CHOLESTEROL [1]: 67.17 mg/dL
- CREATINE PHOSPHOKINASE [1]: 312.33 u/L
- CREATININE [1]: 0.19 mg/dL
- GLUCOSE [1]: 165.5 mg/dL
- LACTATE DEHYDROGENASE [1]: 94.5 u/L
- LIPASE [1]: 9.83 u/L
- PHOSPHORUS [1]: 10.1 mg/dL
- POTASSIUM [1]: 5.16 MEQ/L
- SODIUM [1]: 143.02 MEQ/L
- TOTAL BILIRUBIN [1]: 0.2 mg/dL
- TOTAL PROTEIN [1]: 5.88 G/DL
- URIC ACID [1]: 0.68 mg/dL
- ABSOLUTE BASOPHIL [2]: 0 CELLS/uL
- ABSOLUTE EOSINOPHIL [2]: 14.67 CELLS/uL
- ABSOLUTE LYMPHOCYTE [2]: 9629.83 CELLS/uL
- ABSOLUTE MONOCYTE [2]: 72.5 CELLS/uL
- ABSOLUTE SEGMENTED NEUTROPHIL [2]: 1049.67 CELLS/uL
- BASOPHIL [2]: 0%
- EOSINOPHIL [2]: 0.17%
- ERYTHROCYTE COUNT [2]: 5.36 x10E6/uL
- HEMATOCRIT [2]: 33.82%
- HEMOGLOBIN [2]: 13.48 G/DL
- LEUKOCYTE COUNT [2]: 10.77 x10E3/uL
- LYMPHOCYTE [2]: 90.17%
- MEAN CORPUSCULAR HEMOGLOBIN [2]: 25.28 pg
- MEAN CORPUSCULAR HEMOGLOBIN CONCENTRATION [2]: 39.92 G/DL
- MEAN CORPUSCULAR VOLUME [2]: 63.3 fL
- MONOCYTE [2]: 0.67%
- NEUTROPHIL [2]: 9%
- NUCLEATED RED BLOOD CELLS [2]: 0.17 /100WBC
- PLATELET COUNT [2]: 1275.33 x10E3/uL
- ALANINE AMINOTRANSFERASE [2]: 93.67 u/L
- ALBUMIN [2]: 4.17 G/DL
- ALKALINE PHOSPHATASE [2]: 402.5 u/L
- ASPARTATE AMINOTRANSFERASE [2]: 122.83 u/L
- BLOOD UREA NITROGEN [2]: 14.75 mg/dL
- CARBON DIOXIDE [2]: 26.4 mmol/L
- CHLORIDE [2]: 98.5 MEQ/L
- CHOLESTEROL [2]: 57.5 mg/dL
- CREATINE PHOSPHOKINASE [2]: 305.17 u/L
- CREATININE [2]: 0.21 mg/dL
- GLUCOSE [2]: 142 mg/dL
- LACTATE DEHYDROGENASE [2]: 83.5 u/L
- LIPASE [2]: 85.83 u/L
- PHOSPHORUS [2]: 8.18 mg/dL
- POTASSIUM [2]: 5.46 MEQ/L
- SODIUM [2]: 144 MEQ/L
- TOTAL BILIRUBIN [2]: 0.25 mg/dL
- TOTAL PROTEIN [2]: 5.63 G/DL
- URIC ACID [2]: 0.8 mg/dL
- ABSOLUTE BASOPHIL [3]: 0 CELLS/uL
- ABSOLUTE EOSINOPHIL [3]: 0 CELLS/uL
- ABSOLUTE LYMPHOCYTE [3]: 7777.67 CELLS/uL
- ABSOLUTE MONOCYTE [3]: 91 CELLS/uL
- ABSOLUTE SEGMENTED NEUTROPHIL [3]: 864.67 CELLS/uL
- BASOPHIL [3]: 0%
- EOSINOPHIL [3]: 0%
- ERYTHROCYTE COUNT [3]: 5.27 x10E6/uL
- HEMATOCRIT [3]: 32.97%
- HEMOGLOBIN [3]: 13.1 G/DL
- LEUKOCYTE COUNT [3]: 8.73 x10E3/uL
- LYMPHOCYTE [3]: 89%
- MEAN CORPUSCULAR HEMOGLOBIN [3]: 24.87 pg
- MEAN CORPUSCULAR HEMOGLOBIN CONCENTRATION [3]: 39.77 G/DL
- MEAN CORPUSCULAR VOLUME [3]: 62.47 fL
- MONOCYTE [3]: 1%
- NEUTROPHIL [3]: 10%
- NUCLEATED RED BLOOD CELLS [3]: 0 /100WBC
- PLATELET COUNT [3]: 1163 x10E3/uL
- ALANINE AMINOTRANSFERASE [3]: 67 u/L
- ALBUMIN [3]: 3.93 G/DL
- ALKALINE PHOSPHATASE [3]: 305.67 u/L
- ASPARTATE AMINOTRANSFERASE [3]: 95.33 u/L
- BLOOD UREA NITROGEN [3]: 12 mg/dL
- CARBON DIOXIDE [3]: 30.67 mmol/L
- CHLORIDE [3]: 98 MEQ/L
- CHOLESTEROL [3]: 76 mg/dL
- CREATINE PHOSPHOKINASE [3]: 453.67 u/L
- CREATININE [3]: 0.18 mg/dL
- GLUCOSE [3]: 193.33 mg/dL
- LACTATE DEHYDROGENASE [3]: 209.33 u/L
- LIPASE [3]: 9.67 u/L
- PHOSPHORUS [3]: 10.07 mg/dL
- POTASSIUM [3]: 5.48 MEQ/L
- SODIUM [3]: 142.9 MEQ/L
- TOTAL BILIRUBIN [3]: 0.2 mg/dL
- TOTAL PROTEIN [3]: 5.8 G/DL
- URIC ACID [3]: 0.63 mg/dL
